Assays:
[1] = system: STX17-SNAP29-VAMP8 complex; settings: in vitro fusion assay; cited from earlier work
[2] = system: HeLa cells; settings: Rab7 colocalization; cited from earlier work
[3] = system: GABARAP; settings: full-length HsEPG5; cited from earlier work
[4] = system: LC3/GABARAP proteins; settings: cited from earlier work
[5] = molecular target: LGG-1 (Caenorhabditis elegans, UniProt Q09490); settings: cited from earlier work
[6] = molecular target: His-LGG-1 (C. elegans, UniProt Q09490 1-116); test: ITC
His-LGG-1, sequence (Q09490 1-116): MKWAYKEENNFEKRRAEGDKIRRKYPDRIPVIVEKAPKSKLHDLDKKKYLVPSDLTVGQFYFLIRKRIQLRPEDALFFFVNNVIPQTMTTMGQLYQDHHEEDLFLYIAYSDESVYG

LGG-1, sequence (Q09490 whole entry): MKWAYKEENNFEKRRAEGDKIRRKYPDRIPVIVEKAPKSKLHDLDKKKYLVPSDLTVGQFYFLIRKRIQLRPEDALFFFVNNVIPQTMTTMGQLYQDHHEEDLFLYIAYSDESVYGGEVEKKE

Q: Which results are given for “HsEPG5: human EPG5 (ectopic P-granules 5 autophagy tethering factor; ~290 kDa)”?
A: effect on STX17-SNAP29-VAMP8 complex formation [1]: modestly enhances the formation of the STX17-SNAP29-VAMP8 complex; formation of puncta / localization in cells [2]: could form small puncta that colocalize with lysosomal surface-residing Rab7 in HeLa cells; Atg8 subfamily preference of HsEPG5 [3]: preferentially binds members of the GABARAP subfamily; dependence of peri-nuclear localization on LC3/GABARAP proteins [4]: HsEPG5 localization to the peri-nuclear region is independent of LC3/GABARAP proteins

Q: Which “binding to LGG-1” value [5] does the source give for CeEPG5: C. elegans EPG-5, recombinant here?
A: Its value is “binds the C. elegans Atg8 protein LGG-1 via its tandem LIR”.

B1: CeEPG5 LIR1 peptide (505STWEILADDDD515) (peptide)
peptide: STWEILADDDD
Q: With B1 as the molecule, how does the Kd [6] read?
A: Its Kd is 1.46 µM.

B2: CeEPG5 LIR2 peptide (516GEANEFSFVTINE528) (peptide)
peptide: GEANEFSFVTINE
Q: With B2 as the molecule, how does the Kd [6] read?
A: Its Kd is 10.4 µM.

Reference: PMC12087653 (Autophagy, 2025)
